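Dose response: 5 concentrations. Exposure: 48 h. Format: 96-well plates. Endpoint: linear interpolation; highest concentration if not reached. At the GI50, growth is halved. TGI: total growth inhibition.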

Common to all, as to assay: NCI tumour cell line growth inhibition, 48 h
Assay [1] deals with SK-OV-3 ovarian.
The subject of assay [2] is SNB-19 CNS.
In assay [3] the test system is A549 NSCLC.
In assay [4] the test system is OVCAR-8 ovarian.
Assay [5] relates to M14 melanoma.
Assay [6] has as its system SNB-75 CNS.
In assay [7] the test system is MALME-3M melanoma.
Assay [8] deals with EKVX NSCLC.
The subject of assay [9] is HCC-2998 colon.
For assay [10], the system named is NCI-H460 lung.

As for `COc1ccc2c(c1)/C(=C\c1c(C)nc3sccn13)C(=O)N2`, the TGI in assay [1] was more than 38.3 µM; in assay [2], more than 100 µM; in [3] it was more than 100 µM; in [5], more than 100 µM; in assay [6] it was more than 100 µM; in assay [7] it was 97.4 µM. Besides, the TGI in [8] was more than 100 µM; in [9], 8.21 µM; in assay [10], more than 100 µM. Moreover, the GI50 in [2] is 0.525 µM; in assay [3], 0.155 µM; in assay [4], 0.306 µM; in assay [5], less than 0.0495 µM; in assay [6], 0.372 µM; in assay [7], less than 0.0478 µM. In addition, the GI50 is 2.12 µM in assay [8] and 0.0392 µM in [9].
For `COc1cc(C2CC(c3ccc4c(c3)OCO4)=NN2C=O)cc(OC)c1OC` (stereo unspecified), the GI50 is 2.25 µM in [1]; 6.3 µM in assay [2]; more than 24.5 µM in [3]; more than 23.3 µM in [4]; 1.3 µM in assay [5]; 1.13 µM in assay [6]. Moreover, the GI50 is 1.93 µM in assay [7], 3.74 µM in assay [8], 4.44 µM in assay [9] and 1.37 µM in assay [10]. Further, the TGI in assay [1] is more than 100 µM; in [2], more than 100 µM; in assay [3], more than 100 µM; in assay [4], more than 100 µM; in assay [5] it was more than 100 µM; in [6], 5.43 µM. Besides, the TGI in [7], in assay [8], in assay [9] and in assay [10] was more than 100 µM in each case.
On to `O=C(NCCCCCCNC(=O)n1cc(F)c(=O)[nH]c1=O)NCCCOCCOCCOCCOCCOCCOCCOCCOCCOCCOCCOCCOCCOCCOCCOCCOCCOCCOCCOCCOCCOCCCNC(=O)C(O)C(O)C(O)C(O)CO` (stereo unspecified), for which the TGI in [1], in assay [2], in assay [3], in assay [4], in assay [5] and in assay [6] was more than 100 µM in each case. Further, the TGI in assay [7], in assay [8], in [9] and in assay [10] was more than 100 µM each time.
Regarding `O=C(NCCO)Nc1ccc(-c2nc(N3CCOCC3)c3cccn3n2)cc1`, the GI50 is 0.0602 µM in assay [1]; 2.14 µM in assay [2]; 2.07 µM in assay [3]; 0.257 µM in assay [4]; 0.189 µM in assay [5]; 0.0445 µM in assay [6]. Besides, the GI50 in assay [8] is 0.183 µM; in assay [9], 0.488 µM; in [10], 0.19 µM. In addition, the TGI was 0.291 µM in assay [1]; more than 100 µM in [2]; 18.3 µM in assay [3]; 21.1 µM in assay [4]; more than 65.5 µM in assay [5]; 1.08 µM in [6]. The TGI is 0.0506 µM in assay [7], 8.47 µM in [8], more than 100 µM in assay [9] and more than 100 µM in [10].
Take `NNC(=O)/C(=C/c1ccc(Cl)cc1Cl)NC(=O)c1ccccc1`: the TGI in assay [1], in assay [2], in assay [3], in assay [4], in assay [5] and in assay [6] was more than 100 µM each time. The TGI in [7], in [8], in assay [9] and in assay [10] was more than 100 µM each time.
Consider `CC#C[C@]1(O)CC[C@H]2[C@@H]3CCC4=CC(=O)CCC4=C3[C@@H](c3ccc4c(c3)OCO4)C[C@@]21C`, for which the GI50 in [1] was 186 µM; in assay [2], 174 µM; in [3], 93.4 µM; in [4], 141 µM; in assay [5], 31 µM; in [6] it was 42.8 µM. For the same molecule, the GI50 in [7] was 173 µM; in assay [8], 40.4 µM; in assay [9], 174 µM; in [10], 108 µM. In addition, the TGI in assay [1] was 777 µM; in assay [2], more than 1000 µM; in assay [3], 875 µM; in assay [4] it was 783 µM; in assay [5], 154 µM; in assay [6] it was 521 µM. Also, the TGI in assay [7] was found to be 556 µM; in assay [8], 813 µM; in assay [9], 572 µM; in [10] it was 305 µM.
Consider `C=CCOc1cccc(/C=C2\SC(=Nc3ccc(O)cc3)NC2=O)c1`, for which the GI50 in assay [1] was 1.66 µM; in [2], 0.531 µM; in [3] it was 0.717 µM; in [4], 0.813 µM; in assay [5] it was 0.384 µM; in assay [6], 0.189 µM. Also, the GI50 in [7] is 2.48 µM; in assay [8] it was 1.47 µM; in assay [9] it was 1.15 µM; in assay [10] it was 0.389 µM. The TGI worked out at 15.7 µM in assay [1]; 36.8 µM in [2]; 14.9 µM in assay [3]; 14 µM in [4]; 22.9 µM in assay [5]; 0.668 µM in [6]. The TGI in assay [7] is 21.9 µM; in [8], more than 100 µM; in assay [9] it was 9.22 µM; in assay [10] it was 5.2 µM.
As for `O=[N+]([O-])C1C2C=CC(C2)[C@H]1c1ccco1` (stereo partly specified), the TGI in [1], in assay [2], in assay [3], in assay [4], in assay [5] and in assay [6] was more than 100 µM each time. Moreover, the TGI in [7], in assay [8], in assay [9] and in assay [10] was more than 100 µM each time.

For the origin of these results see PubChem BioAssay (NCI).
